In US5925618A, “Peptides useful as somatostatin antagonists” (American Cyanamid Company, priority 1998, dated 1999):
Square brackets hold non-standard residues; d marks the D form. Peptide text beside a SMILES is read from it.

Columns and labels:
[1] = target: T1, S. cerevisiae (yeast) cells expressing SRIF receptors (Rattus norvegicus, UniProt P30680); experiment: Yeast bioassay for SRIF antagonist activity (LY364 cells growing in response to SRIF, zone of growth inhibition); assay type: cell-based; details: Sample type 4th iteration; 10 μL of 5 mg/mL on disk, SRIF 10 nM, read after 3 days
T1 construct: expressed in transfected cells; host or cells: S. cerevisiae strain LY364
Text: SRIF antagonist assay using S. cerevisiae (yeast) cells expressing SRIF receptors that grow in response to SRIF
Agar plates containing LY364 cells that are growing in the presence of added SRIF are the basis for a sensitive SRIF antagonist assay, whereby zones of growth inhibition result from the addition of SRIF antagonists to the surface of the agar plate (see L. A. Price, et al., Molecular and Cellular Biology, 15, 6188-6195, 1995, incorporated herein by reference).
In this assay, LY364 cells are grown overnight in 2 mL of synthetic complete(SC) medium (3.4 g/L YNB without amino acids and ammonium sulfate, 10 g/L ammonium sulfate and 1.4 g/L CSM-ura-trp) with glucose (2%) and without uracil and tryptophan. These cells are washed and cultured for 4 to 8 hours in 5 mL of SC medium with lactate (3%) and without uracil and tryptophan, and finally grown overnight in 5 mL of SC medium with galactose (2%) and without uracil and tryptophan. Molten (50° C.) SC agar medium with galactose (2%) and without uracil, tryptophan and histidine is adjusted to pH 6.8 with KOH, mixed with 2×10^4 cells/mL and SRIF (S-14, 10 nM) and poured into square (20×20 cm) petri dishes. Sterile filter disks are placed on the surface of the agar, and saturated with 10 μL of water or DMSO containing 5 mg/mL test peptides. After three days, the plates display a uniform cloudy background of LY264 cells growing in response to the added SRIF. […] This zone is quantified by measuring its diameter (mm), which varies according to the potency of the SRIF antagonist. Those peptides or mixtures of peptides displaying the largest zones of inhibition are further characterized.
Values are compared among samples in the same experiment, as the degree of yeast growth varies somewhat from assay to assay. For the first five sample types, in which progressively less complex mixtures of peptides are found, this assay is the primary determining factor in choosing which samples form the basis of subsequent syntheses.
Plates are read after 3 days. Samples shown in Table I in bold type are chosen for further synthesis. In Table I, all amino acids are D-amino acids and dashes represent undefined amino acid residues.

[2] = test system: Male Sprague-Dawley rats; experiment: Serum growth hormone levels in anaesthetized rats (peptide 1, BIM 23014C); assay type: in vivo, rat
Method: Evaluation in anaesthetized rats. Male Sprague-Dawley rats are anaesthetized with Sagatal and fitted so as to allow efficient intravenous treatment with control and test compounds as well as frequent blood sampling. Blood samples are tested for growth hormone (GH) levels by radioimmunoassay. Thirty minutes after the initiation of blood sampling, rats are given 5 μg, 25 μg or 50 μg of peptide 1.

T1 sequence (P30680 whole entry): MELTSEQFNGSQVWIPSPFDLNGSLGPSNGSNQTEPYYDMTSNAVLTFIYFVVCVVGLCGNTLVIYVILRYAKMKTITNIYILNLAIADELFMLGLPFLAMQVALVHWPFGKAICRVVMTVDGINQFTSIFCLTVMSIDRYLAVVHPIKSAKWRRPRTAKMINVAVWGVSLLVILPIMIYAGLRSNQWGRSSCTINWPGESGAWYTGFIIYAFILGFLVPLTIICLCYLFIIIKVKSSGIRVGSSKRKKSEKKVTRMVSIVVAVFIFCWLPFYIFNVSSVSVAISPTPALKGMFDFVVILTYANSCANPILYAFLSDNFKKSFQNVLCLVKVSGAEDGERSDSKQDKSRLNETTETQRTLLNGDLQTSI

**Q.** Which “Inhibition Zone” value [1] does the source give for `CC[C@@H](C)[C@@H](NC(=O)[C@@H](Cc1ccccc1)NC(=O)[C@@H](Cc1c[nH]cn1)NC(C)=O)C(=O)N[C@H](CCCNC(=N)N)C(=O)N[C@H](Cc1c[nH]c2ccccc12)C(=O)N[C@H](Cc1ccccc1)C(N)=O` [Peptide 1, h-f-i-r-w-f] (Ac-[dH][dF][dI][dR][dW][dF]-NH2) here?
**A.** 18 mm

**Q.** And the SGH ([2]; 5 μg group, 90 min (time of 2nd peptide 1 dose, after BIM 23014C))?
**A.** 2.4 ng/mL

**Q.** What about the SGH ([2]; 5 μg peptide 1 at 30 min, sample 35 min) of the same compound?
**A.** 17.5 ng/mL

**Q.** And the SGH ([2]; 5 μg peptide 1 at 30 min, sample 40 min)?
**A.** 14.9 ng/mL

**Q.** What about the SGH ([2]; 5 μg peptide 1 at 30 min, sample 45 min) of the same compound?
**A.** 15.7 ng/mL

**Q.** What about the SGH ([2]; 5 μg peptide 1 group, i.v., 30 min (time of 1st peptide 1 dose)) of the same compound?
**A.** 12.2 ng/mL

**Q.** What about the “serum GH levels after first dose” value ([2]; 5 μg, 25 μg or 50 μg i.v. at 30 min) of the same compound?
**A.** significant increase in serum GH levels resulting from the highest dose

**Q.** And the SGH ([2]; 25 μg group, 90 min (time of 2nd peptide 1 dose, after BIM 23014C))?
**A.** 5.1 ng/mL

**Q.** And the SGH ([2]; 25 μg peptide 1 at 30 min, sample 35 min)?
**A.** 18.4 ng/mL

**Q.** What about the SGH ([2]; 25 μg peptide 1 at 30 min, sample 40 min) of the same compound?
**A.** 17.5 ng/mL

**Q.** And the SGH ([2]; 25 μg peptide 1 at 30 min, sample 45 min)?
**A.** 14.0 ng/mL

**Q.** What about the SGH ([2]; 25 μg peptide 1 group, i.v., 30 min (time of 1st peptide 1 dose)) of the same compound?
**A.** 16.6 ng/mL

**Q.** And the SGH ([2]; 50 μg group, 90 min (time of 2nd peptide 1 dose, after BIM 23014C))?
**A.** 1.9 ng/mL

**Q.** What about the SGH ([2]; 50 μg peptide 1 at 30 min, sample 35 min) of the same compound?
**A.** 50.2 ng/mL

**Q.** And the SGH ([2]; 50 μg peptide 1 at 30 min, sample 40 min)?
**A.** 23.4 ng/mL

**Q.** And the SGH ([2]; 50 μg peptide 1 at 30 min, sample 45 min)?
**A.** 15.5 ng/mL

**Q.** What about the SGH ([2]; 50 μg peptide 1 group, i.v., 30 min (time of 1st peptide 1 dose)) of the same compound?
**A.** 19.7 ng/mL

**Q.** What about the SGH ([2]; 2nd dose 5 μg peptide 1 at 90 min after BIM 23014C, sample 95 min) of the same compound?
**A.** 3.1 ng/mL

**Q.** And the SGH ([2]; 2nd dose 5 μg peptide 1 at 90 min after BIM 23014C, sample 100 min)?
**A.** 1.7 ng/mL

**Q.** And the SGH ([2]; 2nd dose 5 μg peptide 1 at 90 min after BIM 23014C, sample 105 min)?
**A.** 1.7 ng/mL

**Q.** What about the SGH ([2]; 2nd dose 5 μg peptide 1 at 90 min after BIM 23014C, sample 135 min) of the same compound?
**A.** 1.1 ng/mL

**Q.** What about the SGH ([2]; 2nd dose 25 μg peptide 1 at 90 min after BIM 23014C, sample 95 min) of the same compound?
**A.** 11.4 ng/mL

**Q.** What about the SGH ([2]; 2nd dose 25 μg peptide 1 at 90 min after BIM 23014C, sample 100 min) of the same compound?
**A.** 10.5 ng/mL

**Q.** What about the SGH ([2]; 2nd dose 25 μg peptide 1 at 90 min after BIM 23014C, sample 105 min) of the same compound?
**A.** 7.9 ng/mL

**Q.** What about the SGH ([2]; 2nd dose 25 μg peptide 1 at 90 min after BIM 23014C, sample 135 min) of the same compound?
**A.** 5.2 ng/mL

**Q.** And the SGH ([2]; 2nd dose 50 μg peptide 1 at 90 min after BIM 23014C, sample 95 min)?
**A.** 67.3 ng/mL

**Q.** And the SGH ([2]; 2nd dose 50 μg peptide 1 at 90 min after BIM 23014C, sample 100 min)?
**A.** 31.8 ng/mL

**Q.** What about the SGH ([2]; 2nd dose 50 μg peptide 1 at 90 min after BIM 23014C, sample 105 min) of the same compound?
**A.** 10.5 ng/mL

**Q.** And the SGH ([2]; 2nd dose 50 μg peptide 1 at 90 min after BIM 23014C, sample 135 min)?
**A.** 2.6 ng/mL

**Q.** And the “serum GH levels after second dose” value ([2]; second dose 5 μg, 25 μg or 50 μg after BIM 23014C)?
**A.** even greater increase in serum GH levels from the highest dose
